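A five-concentration, 48-hour dose response in 96-well plates underlies each endpoint, interpolated linearly between surrounding concentrations. The concentration for 50% growth inhibition is given as GI50.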 Activity calls are given as the source filed them. Cut-off read from the data, not from the text of the source: active = GI50 up to about 1.1 µM and inactive = higher.
Key:
Assay in all cases: growth of human tumour cells (NCI), 48 h
UACC-62 = tested on: UACC-62
HOP-62 = tested on: HOP-62
NCI-H460 = tested on: NCI-H460
SW-620 = tested on: SW-620
A498 = tested on: A498
SNB-19 = tested on: SNB-19
NCI-H226 = tested on: NCI-H226
SK-MEL-5 = tested on: SK-MEL-5
COLO 205 = tested on: COLO 205
SK-MEL-2 = tested on: SK-MEL-2
CAKI-1 = tested on: CAKI-1
HCT-15 = tested on: HCT-15
SF-268 = tested on: SF-268
NCI-H23 = tested on: NCI-H23
OVCAR-3 = tested on: OVCAR-3
Malme-3M = tested on: Malme-3M
UO-31 = tested on: UO-31
TK-10 = tested on: TK-10

## CCCCc1nccc2c(C)c3[nH]c4ccccc4c3cc12
UACC-62
  GI50: 2.8 µM (inactive)
HOP-62
  GI50: 3.68 µM (inactive)
NCI-H460
  GI50: 2.17 µM (inactive)
SW-620
  GI50: 2.26 µM (inactive)
A498
  GI50: 4.67 µM (inactive)
SNB-19
  GI50: 5 µM (inactive)
NCI-H226
  GI50: 7.57 µM (inactive)
SK-MEL-5
  GI50: 2.24 µM (inactive)
COLO 205
  GI50: 0.92 µM (active)
SK-MEL-2
  GI50: 3.88 µM (inactive)
CAKI-1
  GI50: 2.59 µM (inactive)
HCT-15
  GI50: 2.07 µM
SF-268
  GI50: 5.87 µM (inactive)
NCI-H23
  GI50: 3.66 µM (inactive)
OVCAR-3
  GI50: 2.79 µM (inactive)
Malme-3M
  GI50: 6.04 µM (inactive)
UO-31
  GI50: 1.86 µM (inactive)

## CN1c2ccccc2N(C)C23N(C)c4ccccc4N(C)C12N(C)c1ccccc1N3C (centres undefined)
UACC-62
  GI50: > 100 µM (inactive)
HOP-62
  GI50: 87.1 µM (inactive)
NCI-H460
  GI50: > 100 µM (inactive)
TK-10
  GI50: > 100 µM (inactive)
SW-620
  GI50: > 100 µM (inactive)
A498
  GI50: > 100 µM (inactive)
SNB-19
  GI50: > 100 µM (inactive)
NCI-H226
  GI50: > 100 µM (inactive)
SK-MEL-5
  GI50: > 100 µM (inactive)
COLO 205
  GI50: > 100 µM (inactive)
SK-MEL-2
  GI50: > 100 µM (inactive)
CAKI-1
  GI50: > 100 µM (inactive)
HCT-15
  GI50: > 100 µM
SF-268
  GI50: > 100 µM (inactive)
NCI-H23
  GI50: > 100 µM (inactive)
OVCAR-3
  GI50: 33.6 µM (inactive)
Malme-3M
  GI50: > 100 µM (inactive)
UO-31
  GI50: > 100 µM (inactive)

## CC(C)OP(=O)(OC(C)C)/C(=N/Nc1ccc([N+](=O)[O-])cc1)NN
UACC-62
  GI50: 34.4 µM (inactive)
HOP-62
  GI50: > 100 µM (inactive)
NCI-H460
  GI50: > 100 µM (inactive)
TK-10
  GI50: > 100 µM (inactive)
SW-620
  GI50: > 100 µM (inactive)
A498
  GI50: > 100 µM (inactive)
SNB-19
  GI50: > 100 µM (inactive)
NCI-H226
  GI50: 0.592 µM (active)
SK-MEL-5
  GI50: 35.7 µM (inactive)
COLO 205
  GI50: > 100 µM (inactive)
SK-MEL-2
  GI50: > 100 µM (inactive)
CAKI-1
  GI50: > 100 µM (inactive)
HCT-15
  GI50: > 100 µM
SF-268
  GI50: > 100 µM (inactive)
NCI-H23
  GI50: 55.2 µM (inactive)
OVCAR-3
  GI50: > 100 µM (inactive)
Malme-3M
  GI50: > 100 µM (inactive)
UO-31
  GI50: 88.5 µM (inactive)

## Cc1ccc(C2C(Cl)C(=O)N2NC(=O)c2ccc(N)cc2)cc1 (centres undefined)
UACC-62
  GI50: 15.8 µM (inactive)
HOP-62
  GI50: 22.4 µM (inactive)
NCI-H460
  GI50: 17.6 µM (inactive)
TK-10
  GI50: 43.6 µM (inactive)
SW-620
  GI50: 21 µM (inactive)
A498
  GI50: 22.5 µM (inactive)
SNB-19
  GI50: 18.4 µM (inactive)
NCI-H226
  GI50: 27.4 µM (inactive)
SK-MEL-5
  GI50: 15.2 µM (inactive)
COLO 205
  GI50: 22.6 µM (inactive)
SK-MEL-2
  GI50: 1.33 µM (inactive)
CAKI-1
  GI50: 20.1 µM (inactive)
HCT-15
  GI50: 15.7 µM
NCI-H23
  GI50: 16 µM (inactive)
OVCAR-3
  GI50: 17.4 µM (inactive)
Malme-3M
  GI50: 17.1 µM (inactive)
UO-31
  GI50: 30 µM (inactive)

## O=S1(=O)C(=C(c2ccccc2)c2ccccc2)S(=O)(=O)c2ccccc21
UACC-62
  GI50: > 72.1 µM (inactive)
HOP-62
  GI50: 23.2 µM (inactive)
NCI-H460
  GI50: > 100 µM (inactive)
SW-620
  GI50: > 100 µM (inactive)
A498
  GI50: > 74.3 µM (inactive)
SNB-19
  GI50: > 58.1 µM (inactive)
NCI-H226
  GI50: > 60.3 µM (inactive)
SK-MEL-5
  GI50: > 89.7 µM (inactive)
COLO 205
  GI50: > 100 µM (inactive)
SK-MEL-2
  GI50: > 100 µM (inactive)
CAKI-1
  GI50: > 87.5 µM (inactive)
HCT-15
  GI50: > 100 µM
SF-268
  GI50: > 72.6 µM (inactive)
NCI-H23
  GI50: > 63.2 µM (inactive)
OVCAR-3
  GI50: > 57.9 µM (inactive)
Malme-3M
  GI50: 53.1 µM (inactive)
UO-31
  GI50: > 100 µM (inactive)

## CNc1ccc2ncccc2c1[N+](=O)[O-]
UACC-62
  GI50: > 100 µM (inactive)
HOP-62
  GI50: > 100 µM (inactive)
NCI-H460
  GI50: > 100 µM (inactive)
TK-10
  GI50: > 100 µM (inactive)
SW-620
  GI50: > 100 µM (inactive)
A498
  GI50: > 100 µM (inactive)
SNB-19
  GI50: > 100 µM (inactive)
NCI-H226
  GI50: > 100 µM (inactive)
SK-MEL-5
  GI50: > 100 µM (inactive)
SK-MEL-2
  GI50: > 100 µM (inactive)
CAKI-1
  GI50: > 100 µM (inactive)
HCT-15
  GI50: > 100 µM
SF-268
  GI50: > 100 µM (inactive)
NCI-H23
  GI50: > 100 µM (inactive)
OVCAR-3
  GI50: > 100 µM (inactive)
Malme-3M
  GI50: > 100 µM (inactive)
UO-31
  GI50: > 100 µM (inactive)

— ChEMBL document CHEMBL1201862, “PubChem BioAssay data set” (2004)
